Data on 31 molecules can be found in US20170333591A9, “ABSORBENT ARTICLE COMPRISING MALODOR REDUCTION COMPOSITIONS” (The Procter & Gamble Company, priority 2014, published 2017).

The first data set can be described thus: Log of liquid dish neat product liquid-air partition coefficient. Type of data set: physicochemical.
Settings: not given
Take `CC1(C)CCc2ccc(CCC=O)cc21` [Material 261]: the “Comment Code: Log of liquid dish neat product liquid-air partition coefficient” value (shortened to “Comment Code: Log”) is given as “K (Log of liquid dish neat product liquid-air partition coefficient greater than or equal to 7)”.
Regarding `C=C(OC(C)=O)c1ccccc1` [Material 931], the “Comment Code: Log” value is “K (Log of liquid dish neat product liquid-air partition coefficient greater than or equal to 7)”.
The same measure, in the same setting: for `CC1=CCCC2(C)CCC(C(C)(C)O)CC12` (stereo not shown) [Material 775] the value was “K (Log of liquid dish neat product liquid-air partition coefficient greater than or equal to 7)”.
Consider `CCC(C)(C)C1CCC(O)CC1` (stereo not shown) [Material 995], for which the “Comment Code: Log” value is reported as “K (Log of liquid dish neat product liquid-air partition coefficient greater than or equal to 7)”.
Still for that read-out and setting: the same measure for `CCc1ccccc1CC(C)(C)C=O` [Material 354]: “K (Log of liquid dish neat product liquid-air partition coefficient greater than or equal to 7)”; for `CC(=O)C1=C(C)[C@@H]2C[C@@]3(C1)[C@H](C)CC[C@H]3C2(C)C` [Material 1129]: “K (Log of liquid dish neat product liquid-air partition coefficient greater than or equal to 7)”.
For the molecule `C/C=C(\C)C(=O)OCC/C=C\CC` [Material 536], the “Comment Code: Log” value is recorded as “K (Log of liquid dish neat product liquid-air partition coefficient greater than or equal to 7)”.
In the case of `C[C@H]1[C@@H]2C[C@H](C[C@@]13C=CC(=O)CC3)C2(C)C` [Material 1143], the “Comment Code: Log” value is “K (Log of liquid dish neat product liquid-air partition coefficient greater than or equal to 7)”.
On to `C=C1CC[C@@H]2[C@H]([C@H]3[C@H]1CC[C@]3(C)O)C2(C)C` [Material 1035], for which the “Comment Code: Log” value was “K (Log of liquid dish neat product liquid-air partition coefficient greater than or equal to 7)”.
Same read-out and setting: for `C[C@@H]1CC[C@H]2C(C)(C)[C@H]3C[C@@]12CC[C@@]3(C)O` [Material 569] the value was “K (Log of liquid dish neat product liquid-air partition coefficient greater than or equal to 7)”; for `COC(C)(C)CCCC(C)C=O` (stereo not shown) [Material 125], “K (Log of liquid dish neat product liquid-air partition coefficient greater than or equal to 7)”.

Staying with this data set, now noted: Comment Code letters K and/or L.
Turning to `CC(=O)C1=C(C)[C@@H]2C[C@@]3(C1)[C@H](C)CC[C@H]3C2(C)C` [Material 1129], the “Log of liquid dish neat product liquid-air partition coefficient (Comment Code K/L)” value (shortened to “Log … (Comment Code K/L)”) is recorded as “K (Log of liquid dish neat product liquid-air partition coefficient greater than or equal to 7)”.
As to `C[C@H]1[C@@H]2C[C@H](C[C@@]13C=CC(=O)CC3)C2(C)C` [Material 1143], the “Log … (Comment Code K/L)” value is recorded as “K (Log of liquid dish neat product liquid-air partition coefficient greater than or equal to 7)”.

Still in this data set, the particulars now being: code letter within the Comment Code cell.
Turning to `CCCCCCCC(=O)OCCCCCC` [Material 263], the “Log … (Comment Code K/L)” value is “K (Log of liquid dish neat product liquid-air partition coefficient greater than or equal to 7)”.
`CCCCCC1C(=O)CCC1CC(=O)OC` (stereo not shown) [Material 113]: the “Log … (Comment Code K/L)” value is on record as “K (Log of liquid dish neat product liquid-air partition coefficient greater than or equal to 7)”.
Turning to `CC1(C)CCc2ccc(CCC=O)cc21` [Material 261], the “Log … (Comment Code K/L)” value is “K (Log of liquid dish neat product liquid-air partition coefficient greater than or equal to 7)”.
Same read-out and setting: the same measure for `CC/C=C\CCOC(=O)c1ccccc1` [Material 541]: “K (Log of liquid dish neat product liquid-air partition coefficient greater than or equal to 7)”; for `CC1=CC2(C=CC(C)O2)C(C(C)C)CC1` (stereo not shown) [Material 68]: “K (Log of liquid dish neat product liquid-air partition coefficient greater than or equal to 7)”.
Take `CCCCCCCCCCCC#N` [Material 498]: the “Log … (Comment Code K/L)” value is “K (Log of liquid dish neat product liquid-air partition coefficient greater than or equal to 7)”.
Turning to `C=CCCC(=O)/C=C/C1C(C)=CCCC1(C)C` (stereo not shown) [Material 559], the “Log … (Comment Code K/L)” value was “K (Log of liquid dish neat product liquid-air partition coefficient greater than or equal to 7)”.
In the case of `CCCCCCCC1CCCC(=O)O1` (stereo not shown) [Material 463], the “Log … (Comment Code K/L)” value is “K (Log of liquid dish neat product liquid-air partition coefficient greater than or equal to 7)”.
As to `O=C1CCCCCCCCCCCCCC1` [Material 480], the “Log … (Comment Code K/L)” value is reported as “K (Log of liquid dish neat product liquid-air partition coefficient greater than or equal to 7)”.
Consider `CCC1=C(O)C(=O)C(C)O1` (stereo not shown) [Material 259], for which the “Log … (Comment Code K/L)” value is listed as “K (Log of liquid dish neat product liquid-air partition coefficient greater than or equal to 7)”.
As for `Cc1cccc(CC(C)(C)CO)c1` [Material 140], the “Log … (Comment Code K/L)” value is listed as “K (Log of liquid dish neat product liquid-air partition coefficient greater than or equal to 7)”.
Still for that read-out and setting: the same measure for `C=CCc1ccc(O)c(OC)c1` [Material 375]: “K (Log of liquid dish neat product liquid-air partition coefficient greater than or equal to 7)”; for `C=C(C)C1CCC(C)C(OC(C)=O)C1` (stereo not shown) [Material 444]: “K (Log of liquid dish neat product liquid-air partition coefficient greater than or equal to 7)”; for `CCOC(C)OCCc1ccccc1` (stereo not shown) [Material 415]: “K (Log of liquid dish neat product liquid-air partition coefficient greater than or equal to 7)”.
On to `CCOC(=O)C1CCC(C(=O)OCC)CC1` (stereo not shown) [Material 347], for which the “Log … (Comment Code K/L)” value was “K (Log of liquid dish neat product liquid-air partition coefficient greater than or equal to 7)”.

Staying with this data set, now noted: code letters K/L of the Comment Code.
Consider `CC(C)=CCCC1=CCC(C#N)CC1` (stereo not shown) [Material 660], for which the “Log of liquid dish neat product liquid-air partition coefficient (Comment Code)” value (“Log … (Comment Code)” below) is “K (Log of liquid dish neat product liquid-air partition coefficient greater than or equal to 7)”.
For `CCC(=O)OC(C)(C)C1CC=C(C)CC1` (stereo not shown) [Material 686], the “Log … (Comment Code)” value was “K (Log of liquid dish neat product liquid-air partition coefficient greater than or equal to 7)”.
`CC1=CCCC2(C)CCC(C(C)(C)O)CC12` (stereo not shown) [Material 775]: the “Log … (Comment Code)” value is listed as “K (Log of liquid dish neat product liquid-air partition coefficient greater than or equal to 7)”.
`CC(C)Cc1ccc(CC(C)C=O)cc1` (stereo not shown) [Material 1033]: the “Log … (Comment Code)” value was “K (Log of liquid dish neat product liquid-air partition coefficient greater than or equal to 7)”.
Take `C=CC(=C)CCC=C(C)CCC=C(C)C` [Material 628]: the “Log … (Comment Code)” value is listed as “K (Log of liquid dish neat product liquid-air partition coefficient greater than or equal to 7)”.
For `C=C1CC[C@@H]2[C@H]([C@H]3[C@H]1CC[C@]3(C)O)C2(C)C` [Material 1035], the “Log … (Comment Code)” value is given as “K (Log of liquid dish neat product liquid-air partition coefficient greater than or equal to 7)”.
Still for that read-out and setting: for `CC1=CCC(O)(C(C)C)CC1` (stereo not shown) [Material 791] the value was “K (Log of liquid dish neat product liquid-air partition coefficient greater than or equal to 7)”; for `C[C@@H]1CC[C@H]2C(C)(C)[C@H]3C[C@@]12CC[C@@]3(C)O` [Material 569], “K (Log of liquid dish neat product liquid-air partition coefficient greater than or equal to 7)”.
For the molecule `CCCC(=O)OCCc1ccccc1` [Material 831], the “Log … (Comment Code)” value is “K (Log of liquid dish neat product liquid-air partition coefficient greater than or equal to 7)”.
